{"source": "patent US4259235A", "about": "“Tricyclic nitrogenous compounds having string plant growth regulating properties” (BASF Aktiengesellschaft, priority 1977, dated 1981)", "key": {"Ipom. spp.": {"system": "Ipom. spp.", "assay": "Herbicidal action, pre- and postemergence application in the greenhouse", "type": "in vivo, Ipomoea spp.", "conditions": "Ipomoea, post-emergence; 3.0 kg/ha POST; read-out: % damage", "procedure": "(§1) Plastic flowerpots having a volume of 300 cm^3 were filled with a sandy loam and the test plants placed therein (either as seed, as vegetatively reproduced species, or as potted plants, e.g., vines). For preemergence treatment, the active ingredients were suspended or emulsified in water as vehicle and sprayed onto the surface of the soil immediately after sowing by means of finely distributing nozzles. The potted vines were treated by spraying them with the correspondingly diluted liquor. For postemergence treatment, the agents were, as stated above, sprayed in water onto the leaves of the test plants, some liquor also falling onto the soil. In some special cases, solid active ingredients were first dissolved in dimethylformamide and then applied in a total liquor amount of 400 liters of water per hectare. For the postemergence treatment, the plants were first grown to a height of from 3 to 10 cm before being treated. With grasses, the first growth was cut, and the new growth treated 2 to 3 days after cutting. The temperature requirements of the plants were taken into account by placing them in cooler or warmer sections of the greenhouse. The experiments were run for from 4 to 6 weeks, during which time the plants were tended and their reaction to the various treatments was assessed.\n(§2) The application rates are given in kg/ha of active ingredient, regardless of the method of application and the amount of water used.\n(§3) A 0 to 100 scale was used for the evaluation, 0 denoting normal emergence or no damage (or no inhibition), and 100 denoting non-emergence or complete destruction of the plants. A distinction should be made in the influence on growth between desired changes without any appreciable disadvantageous phytotoxic effects (e.g., purely growth-regulating effects) and those of a phytotoxic herbicical character."}, "Sinapis alba": {"system": "Sinapis alba", "assay": "Herbicidal action, pre- and postemergence application in the greenhouse", "type": "in vivo", "conditions": "post-emergence, read-out: % damage", "procedure": "as §1, §2, §3"}, "Lolium mult.": {"system": "Lolium mult.", "assay": "Herbicidal action, pre- and postemergence application in the greenhouse", "type": "in vivo", "conditions": "for pest or weed control at 3000 g/ha: Lolium, post-emergence, read-out: % damage", "procedure": "as §1, §2, §3"}, "Mentha piper.": {"system": "Mentha piper.", "assay": "Herbicidal action, pre- and postemergence application in the greenhouse", "type": "in vivo", "conditions": "post-emergence; 3.0 kg/ha POST; read-out: % damage", "procedure": "as §1, §2, §3"}, "Viola tric.": {"system": "Viola tric.", "assay": "Herbicidal action, pre- and postemergence application in the greenhouse", "type": "in vivo", "conditions": "3.0 kg/ha POST", "procedure": "as §1, §2, §3"}, "Euph. gen.": {"system": "Euph. gen.", "assay": "Herbicidal action, pre- and postemergence application in the greenhouse", "type": "in vivo, Euphorbia geniculata", "procedure": "as §1, §2, §3"}, "Cynodon dact. (seed)": {"system": "Cynodon dact. (seed)", "assay": "Herbicidal action, pre- and postemergence application in the greenhouse", "type": "in vivo, Cynodon dactylon", "procedure": "as §1, §2, §3"}, "Cyper. esc.": {"system": "Cyper. esc.", "assay": "Removal and inhibition of unwanted plants, preemergence, greenhouse", "type": "in vivo, Cyperus esculentus", "procedure": "as §1, §2, §3"}, "Echin. c.g.": {"system": "Echin. c.g.", "assay": "Removal and inhibition of unwanted plants, preemergence, greenhouse", "type": "in vivo, Echinochloa crus galli", "procedure": "as §1, §2, §3"}, "Lam. spp.": {"system": "Lam. spp.", "assay": "Removal and inhibition of unwanted plants, preemergence, greenhouse", "type": "in vivo", "procedure": "as §1, §2, §3"}, "Setar. spp.": {"system": "Setar. spp.", "assay": "Removal and inhibition of unwanted plants, preemergence, greenhouse", "type": "in vivo", "procedure": "as §1, §2, §3"}, "Solan. nig.": {"system": "Solan. nig.", "assay": "Removal and inhibition of unwanted plants, preemergence, greenhouse", "type": "in vivo, Solanum nigrum", "procedure": "as §1, §2, §3"}}, "note": "Where two headings read alike, the source gives them in different places."}
{"smiles": "OC1C(O)C2CC1C1N=NC21", "note": "(stereo not drawn)", "values": [{"measurement": "pest or weed control at 3000 g/ha", "setting": "Ipom. spp.", "value": 100, "unit": "%"}, {"measurement": "pest or weed control at 3000 g/ha", "setting": "Sinapis alba; 3.0 kg/ha PRE", "value": 80, "unit": "%"}, {"measurement": "pest or weed control at 3000 g/ha", "setting": "Lolium mult.; 3.0 kg/ha POST", "value": 95, "unit": "%"}, {"measurement": "pest or weed control at 3000 g/ha", "setting": "Lolium mult.; 3.0 kg/ha PRE", "value": 90, "unit": "%"}, {"measurement": "pest or weed control at 3000 g/ha", "setting": "Mentha piper.", "value": 100, "unit": "%"}, {"measurement": "% damage", "setting": "Viola tric.", "value": 95, "unit": "%"}]}
{"smiles": "ClC1C(Cl)C2CC1C1N=NC21", "note": "(stereo not drawn)", "values": [{"measurement": "% damage", "setting": "Euph. gen.; 1.0 kg/ha PRE", "value": 70, "unit": "%"}, {"measurement": "% damage", "setting": "Euph. gen.; 2.0 kg/ha POST", "value": 95, "unit": "%"}, {"measurement": "% damage", "setting": "Lolium mult.; 3.0 kg/ha POST", "value": 100, "unit": "%"}, {"measurement": "pest or weed control at 3000 g/ha", "setting": "Lolium mult.", "value": 100, "unit": "%"}, {"measurement": "% damage", "setting": "Cynodon dact. (seed); 1.0 kg/ha PRE", "value": 90, "unit": "%"}, {"measurement": "% damage", "setting": "Cynodon dact. (seed); 2.0 kg/ha POST", "value": 100, "unit": "%"}]}
{"smiles": "BrC1C(Br)C2CC1C1N=NC21", "note": "(stereo not drawn) [drawing 430]", "values": [{"measurement": "% damage", "setting": "Cyper. esc.; 2.0 kg/ha PRE", "value": 20, "unit": "%"}, {"measurement": "% damage", "setting": "Cyper. esc.; 4.0 kg/ha PRE", "value": 55, "unit": "%"}, {"measurement": "% damage", "setting": "Cyper. esc.; 8.0 kg/ha PRE", "value": 70, "unit": "%"}, {"measurement": "% damage", "setting": "Echin. c.g.; 2.0 kg/ha PRE", "value": 50, "unit": "%"}, {"measurement": "% damage", "setting": "Echin. c.g.; 4.0 kg/ha PRE", "value": 80, "unit": "%"}, {"measurement": "% damage", "setting": "Echin. c.g.; 8.0 kg/ha PRE", "value": 90, "unit": "%"}, {"measurement": "% damage", "setting": "Lam. spp.; 2.0 kg/ha PRE", "value": 95, "unit": "%"}, {"measurement": "% damage", "setting": "Lam. spp.; 4.0 kg/ha PRE", "value": 95, "unit": "%"}, {"measurement": "% damage", "setting": "Lam. spp.; 8.0 kg/ha PRE", "value": 95, "unit": "%"}, {"measurement": "% damage", "setting": "Setar. spp.; 2.0 kg/ha PRE", "value": 100, "unit": "%"}, {"measurement": "% damage", "setting": "Setar. spp.; 4.0 kg/ha PRE", "value": 100, "unit": "%"}, {"measurement": "% damage", "setting": "Setar. spp.; 8.0 kg/ha PRE", "value": 100, "unit": "%"}, {"measurement": "% damage", "setting": "Solan. nig.; 2.0 kg/ha PRE", "value": 95, "unit": "%"}, {"measurement": "% damage", "setting": "Solan. nig.; 4.0 kg/ha PRE", "value": 95, "unit": "%"}, {"measurement": "% damage", "setting": "Solan. nig.; 8.0 kg/ha PRE", "value": 95, "unit": "%"}]}
{"smiles": "BrC1C(Br)C2CC1C1N=NC21", "note": "(stereo not drawn) [drawing 442]", "values": [{"measurement": "% damage", "setting": "Euph. gen.; 1.0 kg/ha PRE", "value": 90, "unit": "%"}, {"measurement": "pest or weed control at 3000 g/ha", "setting": "Sinapis alba; 3.0 kg/ha POST", "value": 100, "unit": "%"}, {"measurement": "pest or weed control at 3000 g/ha", "setting": "Sinapis alba; 3.0 kg/ha PRE", "value": 70, "unit": "%"}, {"measurement": "pest or weed control at 3000 g/ha", "setting": "Lolium mult.; 3.0 kg/ha POST", "value": 100, "unit": "%"}, {"measurement": "pest or weed control at 3000 g/ha", "setting": "Lolium mult.; 3.0 kg/ha PRE", "value": 40, "unit": "%"}, {"measurement": "% damage", "setting": "Cynodon dact. (seed); 1.0 kg/ha PRE", "value": 100, "unit": "%"}]}
